Values joined by “and” are separate entries in the source; they are usually repeats but may differ in a detail not shown here. Identical values can stand only once.
Tests used:
human ERα = target: T1, human ERα (Homo sapiens, UniProt P03372); assay: Yeast estrogen screen (YES) assay, agonistic activity (β-galactosidase reporter); format: cell-based; conditions: triplicates; for EC50: YES assay; for Estrogenic Activity (relative β-galactosidase activity): compounds at 1 µM, compared to DMSO (set as 1)
T1 construct: host or cells: Saccharomyces cerevisiae
T1 sequence (P03372 1-595): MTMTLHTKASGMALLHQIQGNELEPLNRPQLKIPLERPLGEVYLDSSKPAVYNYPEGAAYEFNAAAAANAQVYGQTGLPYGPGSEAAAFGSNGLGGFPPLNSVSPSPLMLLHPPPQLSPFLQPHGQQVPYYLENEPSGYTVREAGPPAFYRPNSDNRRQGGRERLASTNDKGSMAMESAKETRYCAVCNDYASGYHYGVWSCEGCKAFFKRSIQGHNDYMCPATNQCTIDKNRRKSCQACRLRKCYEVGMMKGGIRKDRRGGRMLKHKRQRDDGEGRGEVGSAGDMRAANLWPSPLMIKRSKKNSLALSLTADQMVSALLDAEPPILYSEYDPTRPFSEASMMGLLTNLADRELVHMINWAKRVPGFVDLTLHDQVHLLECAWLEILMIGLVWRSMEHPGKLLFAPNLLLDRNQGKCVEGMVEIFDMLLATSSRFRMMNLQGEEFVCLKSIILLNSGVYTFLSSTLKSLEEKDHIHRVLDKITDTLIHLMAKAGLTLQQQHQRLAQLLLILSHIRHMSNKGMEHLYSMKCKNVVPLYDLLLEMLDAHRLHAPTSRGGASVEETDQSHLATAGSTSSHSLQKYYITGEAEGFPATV
Method: All synthesized compounds were tested for their relative activity in β-galactosidase in a yeast estrogen screen (YES) assay. Compounds were tested for their relative estrogenic/anti-estrogenic activities in comparison to positive and negative controls, respectively. YES assay is a gene reporter assay where the DNA sequence of human ERα is integrated into the yeast genome completed with an expression plasmid carrying estrogen response elements (ERE) in the promoter controlling the expression of the reporter gene lacZ (encoding the enzyme β-galactosidase). In the presence of estrogenic compounds, β-galactosidase is synthesized and secreted into the medium, where it converts the chromogenic substrate chlorophenol red-β-D-galactopyranoside (CRPG) from a yellow to a red product, whose absorbance is measured. […] Therefore, we decided to test the novel compounds in an organ-specific in vitro model using the human Ishikawa endometrial adenocarcinoma cell line.
All synthesized compounds were tested for their relative β-galactosidase activity in a yeast estrogen screen (YES) assay at a concentration of 1 µM using DMSO as control (set as 1).
The yeast estrogen receptor assay was supplied by Dr. J.P. Sumpter (Brunel University, Uxbridge, UK) and was used to determine the relative transactivation activity of the human ERα as formerly described. Briefly, Saccharomyces cerevisiae stably transfected with a human ERα and an estrogen-responsive element fused to the reporter gene lacZ encoding for β-galactosidase were treated with the test substances for about 48 h. The β-galactosidase enzymatic activity was measured in a colorimetric assay using a microplate photometer by hydrolysis of the substrate chlorophenol red β-D-galactopyranoside (Roche Diagnostics, Mannheim, Germany), which leads to the formation of chlorophenol red. This can be measured as an increased absorption at 540 nm. All compounds were diluted in DMSO. […] All compounds were tested in technical quadruplicates and biological triplicates. Statistical analysis was performed by analysis of variance (ANOVA) and Tukey’s post-hoc test with the significance level of p < 0.05.

60 NCI tumor cell lines = assay: NCI-60 single-dose growth inhibition screen (SRB); format: cell-based, human; conditions: for anti-proliferative activity (in words): 10 µM, NCI-60 panel and MCF-7; for inhibition at 10 µM: Homo sapiens, mean over 60 NCI tumor cell lines
Method: The anti-proliferative effects of the novel analogs were tested in vitro by the National Cancer Institute (NCI) on a panel of 60 human tumor cell lines at 10 µM. Compounds that elicited mean growth inhibition ≥50% were selected by the NCI for 5-dose testing.
Compounds were submitted to the Developmental Therapeutics Program (DTP) of the National Cancer Institute (NCI). The program uses a panel of 60 human tumor cell lines representing nine tissue types, including leukemia, non-small cell lung cancer (NSCLC), melanoma, colon cancer, ovarian cancer, CNS cancer, renal cancer, prostate cancer, and breast cancer, to screen for potential new anti-cancer agents. […] Primary screening of synthesized compounds was performed by testing a single high dose of 10 µM in the full NCI-60 panel. The percent growth of treated cells relative to the no-drug control and relative to the time zero number of cells was measured, and a mean graph was provided. The percentage inhibition was then calculated by subtracting the values obtained from 100.
All compounds were subjected to the NCI in vitro disease-oriented human cells screening panel assay. The human tumor cell lines of the cancer-screening panel are grown in RPMI 1640 medium containing 5% fetal bovine serum and 2 mM L-glutamine. For a typical screening experiment, cells are inoculated into 96-well microtiter plates in 100 μL at plating densities ranging from 5000 to 40,000 cells/well depending on the doubling time of individual cell lines. After cell inoculation, the microtiter plates are incubated at 37 °C, 5% CO2, 95% air, and 100% relative humidity for 24 h prior to the addition of experimental drugs. After 24 h, two plates of each cell line are fixed in situ with TCA to represent a measurement of the cell population for each cell line at the time of drug addition. Experimental drugs are solubilized in dimethyl sulfoxide at 400-fold the desired final maximum test concentration and stored frozen prior to use. At the time of drug addition, an aliquot of frozen concentrate is thawed and diluted to twice the desired final maximum test concentration with complete medium containing 50 μg/mL gentamicin. Additional four, 10-fold, or ½ log serial dilutions are made to provide a total of five drug concentrations plus control. Aliquots of 100 μL of these different drug dilutions are added to the appropriate microtiter wells already containing 100 μL of medium, resulting in the required final drug concentrations. Following drug addition, the plates are incubated for an additional 48 h at 37 °C, 5% CO2, 95% air, and 100% relative humidity. For adherent cells, the assay is terminated by the addition of cold TCA. Cells are fixed in situ by the gentle addition of 50 μL of cold 50% (w/v) TCA (final concentration, 10% TCA) and incubated for 60 min at 4 °C. The supernatant is discarded, and the plates are washed five times with tap water and air-dried. Sulforhodamine B (SRB) solution (100 μL) at 0.4% (w/v) in 1% acetic acid is added to each well, and plates are incubated for 10 min at room temperature. After staining, unbound dye is removed by washing five times with 1% acetic acid, and the plates are air-dried. Bound stain is subsequently solubilized with a 10 mM trizma base, and the absorbance is read on an automated plate reader at a wavelength of 515 nm. For suspension cells, the methodology is the same except that the assay is terminated by fixing settled cells at the bottom of the wells by gently adding 50 μL of 80% TCA (final concentration, 16% TCA). Compounds are screened at a dose of 10 µM, hits showing mean growth inhibition over 60 cell lines >50% are escalated for 5-dose screening assay.

SMILES | EC50 (human ERα) | Estrogenic Activity (relative β-galactosidase activity) (human ERα) | anti-proliferative activity (in words) (60 NCI tumor cell lines) | inhibition at 10 µM (60 NCI tumor cell lines) [%]
COc1ccc(C(C)=C(c2ccc(O)cc2)c2ccc(Cl)cc2)cc1F [Compound 3, E/Z-4-[1-(4-Chlorophenyl)-2-(3-fluoro-4-methoxyphenyl)propenyl]-phenol] | 40 nM and 40.1 nM | 12.83 ± 2.72 | lacked anti-proliferative activity | 2.34
CC(=C(c1ccc(Cl)cc1)c1ccc(OCCN2CCCCC2)cc1)c1ccccc1 [Compound 7, E/Z-1-(2-{4-[1-(4-Chloro-phenyl)-2-phenyl-propenyl]-phenoxy}-ethyl)-piperidine] |  | 2.87 ± 0.90 |  | 29
CC(=C(c1ccc(Cl)cc1)c1ccc(OCCN2CCOCC2)cc1)c1ccccc1 [Compound 8, E/Z-4-(2-{4-[1-(4-Chloro-phenyl)-2-phenyl-propenyl]-phenoxy}-ethyl)-morpholine] |  | 1.85 ± 0.11 | lacked anti-proliferative activity | 9.4
COc1ccc(C(C)=C(c2ccc(Cl)cc2)c2ccc(OCCCN(C)C)cc2)cc1 [Compound 10, E/Z-(3-{4-[1-(4-Chloro-phenyl)-2-(4-methoxy-phenyl)-propenyl]-phenoxy}-propyl)-dimethyl-amine] |  | 11.61 and 11.61 ± 0.99 |  | 33.4
COc1ccc(C(C)=C(c2ccc(Cl)cc2)c2ccc(OCCN3CCCC3)cc2)cc1 [Compound 11, E/Z-1-(2-{4-[1-(4-Chloro-phenyl)-2-(4-methoxy-phenyl)-propenyl]-phenoxy}-ethyl)-pyrrolidine] |  | 1.98 ± 0.12 |  | 67.8
COc1ccc(C(C)=C(c2ccc(Cl)cc2)c2ccc(OCCN3CCCCCC3)cc2)cc1 [Compound 14, E/Z-1-(2-{4-[1-(4-Chloro-phenyl)-2-(4-methoxy-phenyl)-propenyl]-phenoxy}-ethyl)-azepane] |  | 1.80 ± 0.09 |  | 47.3
COc1ccc(C(C)=C(c2ccc(Cl)cc2)c2ccc(OCCN3CCCCC3)cc2)cc1F [Compound 17, E/Z-1-(2-{4-[1-(4-Chlorophenyl)-2-(3-fluoro-4-methoxyphenyl)-propenyl]-phenoxy}-ethyl)-piperidine] | 252 ± 8 nM | 7.28 and 7.28 ± 3.10 |  | 69.1

Second part, led by results:

EC50 (human ERα) | Estrogenic Activity (relative β-galactosidase activity) (human ERα) | SMILES | anti-proliferative activity (in words) (60 NCI tumor cell lines) | inhibition at 10 µM (60 NCI tumor cell lines) [%]
258 ± 80 nM | 6.62 ± 1.74 | COc1cc(C(C)=C(c2ccc(O)cc2)c2ccc(Cl)cc2)ccc1F [Compound 4, E/Z-4-[1-(4-Chlorophenyl)-2-(4-fluoro-3-methoxyphenyl)propenyl]-phenol] | lacked anti-proliferative activity | 15.4
 | 2.25 ± 0.92 | CC(=C(c1ccc(Cl)cc1)c1ccc(OCCCN(C)C)cc1)c1ccccc1 [Compound 5, E/Z-(3-{4-[1-(4-Chloro-phenyl)-2-phenyl-propenyl]-phenoxy}-propyl)-dimethyl-amine] |  | 15.4
 | 2.88 ± 0.89 | CC(=C(c1ccc(Cl)cc1)c1ccc(OCCN2CCCC2)cc1)c1ccccc1 [Compound 6, E/Z-1-(2-{4-[1-(4-Chloro-phenyl)-2-phenyl-propenyl]-phenoxy}-ethyl)-pyrrolidine] |  | 37.8
 | 6.74 and 6.74 ± 1.67 | CC(=C(c1ccc(Cl)cc1)c1ccc(OCCN2CCCCCC2)cc1)c1ccccc1 [Compound 9, E/Z-1-(2-{4-[1-(4-Chloro-phenyl)-2-phenyl-propenyl]-phenoxy}-ethyl)-azepane] |  | 25.4
 | 3.65 ± 0.70 | COc1ccc(C(C)=C(c2ccc(Cl)cc2)c2ccc(OCCN3CCCCC3)cc2)cc1 [Compound 12, E/Z-1-(2-{4-[1-(4-Chloro-phenyl)-2-(4-methoxy-phenyl)-propenyl]-phenoxy}-ethyl)-piperidine] |  | 55.2
 | 12.41 and 12.41 ± 0.26 | COc1ccc(C(C)=C(c2ccc(Cl)cc2)c2ccc(OCCN3CCOCC3)cc2)cc1 [Compound 13, E/Z-4-(2-{4-[1-(4-Chloro-phenyl)-2-(4-methoxy-phenyl)-propenyl]-phenoxy}-ethyl)-morpholine] | lacked anti-proliferative activity | 7.86
440 ± 10 nM | 7.77 and 7.77 ± 1.9 | COc1ccc(C(C)=C(c2ccc(Cl)cc2)c2ccc(OCCCN(C)C)cc2)cc1F [Compound 15, E/Z-(3-{4-[1-(4-Chlorophenyl)-2-(3-fluoro-4-methoxyphenyl)-propenyl]-phenoxy}-propyl)-dimethyl-amine] |  | 47.9
 | 2.19 ± 0.71 | COc1ccc(C(C)=C(c2ccc(Cl)cc2)c2ccc(OCCN3CCCC3)cc2)cc1F [Compound 16, E/Z-1-(2-{4-[1-(4-Chlorophenyl)-2-(3-fluoro-4-methoxyphenyl)-propenyl]-phenoxy}-ethyl)-pyrrolidine] |  | 77.2
 | 1.76 ± 0.56 | COc1ccc(C(C)=C(c2ccc(Cl)cc2)c2ccc(OCCN3CCOCC3)cc2)cc1F [Compound 18, E/Z-4-(2-{4-[1-(4-Chlorophenyl)-2-(3-fluoro-4-methoxyphenyl)-propenyl]-phenoxy}-ethyl)-morpholine] | lacked anti-proliferative activity | 4.23
